From the NIST ThermoML archive (doi:10.1016/j.jct.2004.08.003)

Experiment: xn = mol fraction of the nth substance listed
Conditions: 101.3 kPa, Liquid

COCCOCCOCCOC [2,5,8,11-tetraoxadodecane] + CCCCCCCCCCCC
Conditions | mass density [kg/m3]
288.15 K, x1 = 0.0983 | 769.24
288.15 K, x1 = 0.2007 | 788.2
288.15 K, x1 = 0.2526 | 798.35
288.15 K, x1 = 0.2974 | 807.41
288.15 K, x1 = 0.398 | 828.67
288.15 K, x1 = 0.5097 | 853.81
288.15 K, x1 = 0.5986 | 875.06
288.15 K, x1 = 0.6981 | 900.28
288.15 K, x1 = 0.8012 | 928.25
288.15 K, x1 = 0.9009 | 957.48
288.15 K, x1 = 0.951 | 973.13
293.15 K, x1 = 0.0989 | 765.55
293.15 K, x1 = 0.1969 | 783.56
293.15 K, x1 = 0.2488 | 793.6
293.15 K, x1 = 0.3069 | 805.3
293.15 K, x1 = 0.4006 | 825.05
293.15 K, x1 = 0.5006 | 847.38
293.15 K, x1 = 0.5981 | 870.51
293.15 K, x1 = 0.6989 | 895.89
293.15 K, x1 = 0.7963 | 922.13
293.15 K, x1 = 0.9032 | 953.28
293.15 K, x1 = 0.95 | 967.84
298.15 K, x1 = 0.0984 | 761.73
298.15 K, x1 = 0.1995 | 780.21
298.15 K, x1 = 0.2511 | 790.16
298.15 K, x1 = 0.3005 | 800.04
298.15 K, x1 = 0.3988 | 820.63
298.15 K, x1 = 0.4974 | 842.53
298.15 K, x1 = 0.598 | 866.25
298.15 K, x1 = 0.6997 | 891.79
298.15 K, x1 = 0.7954 | 917.48
298.15 K, x1 = 0.9014 | 948.24
298.15 K, x1 = 0.9513 | 963.73
303.15 K, x1 = 0.0987 | 758.05
303.15 K, x1 = 0.2033 | 777
303.15 K, x1 = 0.2498 | 785.94
303.15 K, x1 = 0.2994 | 795.76
303.15 K, x1 = 0.3949 | 815.57
303.15 K, x1 = 0.5002 | 838.84
303.15 K, x1 = 0.5996 | 862.24
303.15 K, x1 = 0.6979 | 886.84
303.15 K, x1 = 0.7996 | 914.11
303.15 K, x1 = 0.9015 | 943.66
303.15 K, x1 = 0.9509 | 958.94
308.15 K, x1 = 0.1 | 754.59
308.15 K, x1 = 0.1987 | 772.42
308.15 K, x1 = 0.2494 | 782.08
308.15 K, x1 = 0.2992 | 791.92
308.15 K, x1 = 0.3968 | 812.1
308.15 K, x1 = 0.5058 | 836.19
308.15 K, x1 = 0.5976 | 857.76
308.15 K, x1 = 0.6974 | 882.71
308.15 K, x1 = 0.7998 | 910.17
308.15 K, x1 = 0.9025 | 939.96
308.15 K, x1 = 0.9512 | 955.04
318.15 K, x1 = 0.0976 | 746.77
318.15 K, x1 = 0.1979 | 764.58
318.15 K, x1 = 0.248 | 773.96
318.15 K, x1 = 0.3015 | 784.34
318.15 K, x1 = 0.4004 | 804.52
318.15 K, x1 = 0.5013 | 826.47
318.15 K, x1 = 0.6035 | 850.21
318.15 K, x1 = 0.6959 | 873.06
318.15 K, x1 = 0.7956 | 899.51
318.15 K, x1 = 0.9025 | 930.16
318.15 K, x1 = 0.949 | 944.39
328.15 K, x1 = 0.0996 | 739.48
328.15 K, x1 = 0.208 | 758.56
328.15 K, x1 = 0.2561 | 767.51
328.15 K, x1 = 0.3036 | 776.66
328.15 K, x1 = 0.3988 | 795.88
328.15 K, x1 = 0.4898 | 815.4
328.15 K, x1 = 0.5972 | 839.96
328.15 K, x1 = 0.6906 | 862.83
328.15 K, x1 = 0.8023 | 892.19
328.15 K, x1 = 0.8988 | 919.73
328.15 K, x1 = 0.9518 | 935.78
